In paper PMC5907308, “21st Brazilian Diabetes Society Congress” (Diabetology & Metabolic Syndrome, 2018):

Columns and labels:
[1] = test system: patients with type 2 diabetes; assay: Acute NEFA lowering with acipimox: 3 h OGTT and isoglycaemic IV glucose; type: in vivo, human
Experimental: Both tests were repeated after ACP ingestion (200 mg 2 h before and 1 h after starting glucose). C-peptide deconvolution was used to calculate IS rates; mathematical model to quantitate ß-cell function and IE. Main parameters: insulin secretion rate (ISR); glucose sensitivity (ßGS), i.e., the slope of the IS/glucose dose–response curve; glucose-induced potentiation (PGLU), a time-dependent modulation of the dose–response; incretin-induced potentiation (PINCR) calculated as the fold IS increment during OGTT compared to IV glucose.

[2] = test system: obese patients
From the text: Alpha-linolenic acid supplementation effects on endoplasmic reticulum stress in visceral adipose tissue from morbid obese patients. 2017. Tese (Doutorado)—Faculdade de Medicina de Ribeirão Preto, Universidade de São Paulo, Ribeirão Preto, 2017. Currently, obesity is considered a worldwide epidemic. It is associated with chronic inflammation and stress activation of the endoplasmic reticulum (ERE), related to the pathogenesis of various diseases such as type 2 diabetes mellitus, cardiovascular diseases, cancer, hypertension, among others. In this context, studies are needed to find alternatives that improve the inflammatory process. […] The objective of our study was to evaluate the effects of alpha-linolenic acid (ALA) supplementation on the metabolism and stress of the endoplasmic reticulum in obese patients. A prospective, randomized, placebo-controlled, double-blind study was conducted. In total, 52 patients were randomized to supplementation with 3 g/day of ALA or placebo, 27 individuals from the omega-3/ALA group and 25 from the control group. Lipid, glycidic and inflammatory profile were evaluated before and after supplementation. Visceral adipose tissue (TAV) was collected during bariatric surgery after supplementation. The fatty acid profile incorporated in the TAV was evaluated by gas chromatography. Genes were evaluated by real-time PCR.

[3] = test system: type 2 diabetic patient; assay: Case report: liraglutide added to insulin degludec and metformin; type: in vivo, human; conditions: last evaluation
Experimental: patient one, type 2 diabetic for 3 years, using Gliclazide 60 mg/day and Metformin 1500 mg/day. They reported asthenia and difficulty losing weight. […] To optimize patient glycemic control and weight loss, Liraglutide 1.2 mg/day was initiated. […] The insulin dose was reduced to 10 U and reassessed in 30 days for possible discontinuation of insulin therapy. GLP- 1 receptor agonists stimulate insulin secretion in a […] manner, inhibit glucagon secretion and hepatic glucose output, delay gastric emptying, induce satiety, reduce appetite, and cause weight loss. […] It is a therapeutic option with action well established in weight loss, metabolic and glycemic improvement in the DM2 patient. However, its action on HbA1C reduction was independent of weight loss, evidencing intensive glycemic control with HbA1C between 6.5 and 7.0% even with discrete or even absent weight loss.

[4] = test system: participants with type 2 diabetes and high cardiovascular risk; assay: LEADER trial, renal outcomes; type: in vivo, human
From the text: Background: The effects of liraglutide, a long-acting glucagon-like peptide-1(GLP-1) analog, on renal outcomes in type 2 diabetes are unknown. We conducted a randomized, double-blind, placebo-controlled trial comparing liraglutide vs placebo, both on a background of standard of care, in participants with type 2 diabetes and high cardiovascular risk.
Renal events were key secondary outcomes. The primary renal outcome was a composite of new onset of persistent macroalbuminuria, persistent doubling of serum creatinine, end stage renal disease (ESRD), or death due to renal disease. Risk of renal outcomes was determined using intention-to-treat in time-to-event analyses; competing risk of death was taken into account. Change of eGFR and loss of eGFR by > − 30% was also analyzed.

[5] = test system: male Wistar rats; type: in vivo, rat
From the text: Background: Glucocorticoids (GCs) are a group of drugs with immunosuppressive and antiinflammatory action, its mechanism of action is related to the suppressing the release of proinflammatory cytokines. In addition, GCs may interfere with carbohydrate metabolism, by antagonizing various peripheral actions of insulin, and from this action, trigger changes in the biochemical profile, mainly regarding the lipid representation. The present study aimed to evaluate the dose–response influence of prednisone in the biochemical profile of rats. […] The treatment was daily with a duration of 21 days, with fasting glycemic measures being evaluated in the first (zero) and last day (21). Then the rats were anesthetized and killed by decapitation, in order to collect the whole blood for serum biochemical analysis by spectrophotometry. All data were statistically evaluated with significance of 5%.

[6] = test system: patient with schizophrenia; assay: New-onset diabetes caused by atypical antipsychotic, case report; type: in vivo, human
From the text: Case report: A patient, previously healthy, had been diagnosed with schizophrenia and started treatment with risperidone. Due to the lack of response, the medication was switched to olanzapine. After 2 years on the new treatment, however, they experienced polyuria, polydipsia and polyphagia, with a weight gain of approximately 12 kg in a period of 2 years. They were diagnosed with new-onset diabetes mellitus and hypertriglyceridemia and was referred to our center for evaluation. They were started on metformin 500 mg/day, NPH insulin 9 units before breakfast and 7 units bedtime, and bezafibrate 200 mg/day. […] LDL was not calculated due to the hypertriglyceridemia. Insulin was titrated to achieve glycemic control and autoantibodies (antiGAD, antiICA and anti-insulin) were requested, but they were negative. A letter was addressed to the psychiatry staff regarding olanzapine’s adverse events, which was exchanged to ziprasidone. […] Insulin dosing was reduced and further withdrawn 3 months after initiation of ziprasidone. Currently, 2 months thereafter, they are on good glycemic control with metformin and alogliptin.

[7] = test system: NGT subjects and T2D patients; assay: Hyperglycaemic clamp with somatostatin, without and with insulin infusion: renal glucose excretion; type: in vivo, human
Experimental: Then, a constant insulin infusion (1 mU min^−1 kg^−1) was started and maintained for additional 3 h (INS period) while clamping glycaemia at CT levels with the use of an ad hoc algorithm. Urines were collected separately for the two study periods for the measurement of glucose and creatinine.

[8] = test system: people with T2D and CKD stages 3-4; assay: AWARD-7 phase 3 study, 26 weeks, both arms combined with insulin lispro; type: in vivo, human
[9] = test system: subjects with type 1 diabetes; assay: onset 1, 26-week phase 3 trial, post hoc analysis by dose adjustment method; type: in vivo, human; conditions: before treatment
[10] = arms DU 1.5 mg and insulin glargine
[11] = subjects continuing carbohydrate counting (CC)
[12] = subjects using a simple bolus algorithm (BA)

## Cc1cnc(C(=O)O)c[n+]1[O-] [ACP, acipimox]
[1]; ACP 200 mg 2 h before and 1 h after starting glucose, n = 13, mean ± SD
  decrease of NEFA OGTT-area-under-curve (AUC): 55 ± 14%
[1]; after ACP, control 26 ± 9, p = ns
  glucose sensitivity (ßGS): 32 ± 11 pmol min^−1 m^−2 mM^−1
[1]; after ACP, control 58 ± 19
  insulin secretion rate (ISR), isoglycaemic IV glucose: 53 ± 15 nmol m^−2
[1]; after ACP, control 70 ± 23
  insulin secretion rate (ISR), OGTT: 64 ± 20 nmol m^−2
[1]; after ACP, control 291 ± 60
  oral glucose sensitivity index, OGIS: 326 ± 44 ml min^−1 m^−2
[1]; in vivo
  incretin-induced potentiation (PINCR): 1.17 ± 0.14 fold

## CC/C=C\C/C=C\C/C=C\CCCCCCCC(=O)O [ALA, alpha-linolenic acid]
[2]; after supplementation
  serum levels of IL-6, TNF-α and CRP: no change
[2]; after supplementation, P = 0.0154
  serum Leptin levels: decrease
[2]; after supplementation, p = 0.0211
  serum IL-4: increase
[2]; after supplementation, p = 0.0410
  serum IP-10: decrease
[2]; gas chromatography
  incorporation of ALA, EPA and DHA into visceral adipose tissue (TAV): Significant incorporation
[2]; real-time PCR
  gene expression of XBP1, sXBP1, EIF2-α, GADD34 and CCT4 chaperone in TAV: increase
  gene expression of leptin and ATF-6 in TAV: decrease

## CCCCCCCCCCCCCCCC(=O)N[C@@H](CCC(=O)NCCCC[C@H](NC(=O)[C@H](C)NC(=O)[C@H](C)NC(=O)[C@H](CCC(N)=O)NC(=O)CNC(=O)[C@H](CCC(=O)O)NC(=O)[C@H](CC(C)C)NC(=O)[C@H](Cc1ccc(O)cc1)NC(=O)[C@H](CO)NC(=O)[C@H](CO)NC(=O)[C@@H](NC(=O)[C@H](CC(=O)O)NC(=O)[C@H](CO)NC(=O)[C@@H](NC(=O)[C@H](Cc1ccccc1)NC(=O)[C@@H](NC(=O)CNC(=O)[C@H](CCC(=O)O)NC(=O)[C@H](C)NC(=O)[C@@H](N)Cc1c[nH]cn1)[C@@H](C)O)[C@@H](C)O)C(C)C)C(=O)N[C@@H](CCC(=O)O)C(=O)N[C@@H](Cc1ccccc1)C(=O)N[C@H](C(=O)N[C@@H](C)C(=O)N[C@@H](Cc1c[nH]c2ccccc12)C(=O)N[C@@H](CC(C)C)C(=O)N[C@H](C(=O)N[C@@H](CCCNC(=N)N)C(=O)NCC(=O)N[C@@H](CCCNC(=N)N)C(=O)NCC(=O)O)C(C)C)[C@@H](C)CC)C(=O)O [Liraglutide]
[3]
  HbA1c: 6.4%
[3]; […] of total weight
  total weight loss: 6 kg
[4]; in vivo
  albuminuria vs placebo: increased less
  eGFR vs placebo: decreased significantly less
[4]; median follow-up 3.84 years, placebo 337 of 4672
  primary renal outcome, participants: 268 of 4668
[4]; p = 0.003
  primary renal outcome, HR vs placebo: 0.787 [0.670;0.924]
[4]; p = 0.004
  new onset of persistent macroalbuminuria, HR vs placebo: 0.74 [0.61;0.91]
[4]; placebo 215 of 4672
  new onset of persistent macroalbuminuria, participants: 161 of 4668

## C[C@]12C=CC(=O)C=C1CC[C@@H]1[C@@H]2C(=O)C[C@@]2(C)[C@H]1CC[C@]2(O)C(=O)CO [PRED, prednisone]
[5]; 1.25 mg/kg, control 68.6 ± 24.8
  alanine aminotransferase (ALT): 79.0 ± 25.1 U/L
[5]; 5.0 mg/kg, 21 days, CONT 144.1 ± 39.6
  triglycerides: 76.0 ± 36.2 mg/dL
[5]; 5.0 mg/kg, CONT 22.8 ± 7.9
  VLDL: 15.2 ± 7.2 mg/dL
[5]; 5.0 mg/kg, CONT 53.0 ± 7.7
  HDL: 23.8 ± 4.2 mg/dL

## Cc1cc2c(s1)Nc1ccccc1N=C2N1CCN(C)CC1 [olanzapine]
[6]; After 2 years on olanzapine
  HDL: 65 mg/dL
  Total cholesterol: 570 mg/dL
  triglycerides: 3455 mg/dL
[6]; period of 2 years on olanzapine
  weight gain: approximately 12 kg

## INS: constant insulin infusion (1 mU min^−1 kg^−1)
[7]; INS period (insulin 1 mU min^−1 kg^−1, 3 h), NGT, CT period 36 ± 16
  exogenous glucose infusion rate (GIR): 157 ± 46 µmol kg MM^−1 min^−1
[7]; INS period, NGT, CT period 20 ± 5
  fractional glucose excretion (FEG): 24 ± 3%
[7]; INS period, NGT, CT period 690 [180]
  urinary glucose excretion (UGE), median [IQR]: 770 [320] µmol min^−1
[7]; INS period, T2D, CT period 17 ± 6
  fractional glucose excretion (FEG): 17 ± 7%
[7]; INS period, T2D, CT period 26 ± 12
  exogenous glucose infusion rate (GIR): 71 ± 47 µmol kg MM^−1 min^−1
[7]; INS period, T2D, CT period 490[280]
  urinary glucose excretion (UGE), median [IQR]: 530[310] µmol min^−1

## dulaglutide
[8]; arm DU 0.75 mg
  Nausea: 11.1%
  diarrhea: 13.7%
  vomiting: 5.8%
[8]; arm DU 0.75 mg once weekly
  hypoglycemia rate (≤ 70 mg/dL): 7.8 events/participant/year
[8]; [10]
  Nausea: 19.8%
  diarrhea: 15.6%
  vomiting: 12.0%
[8]; arms DU 1.5 mg once weekly and titrated daily insulin glargine
  hypoglycemia rate (≤ 70 mg/dL): 5.5 events/participant/year

## fast-acting insulin aspart [faster aspart]
[9]; [11]
  HbA1c at baseline: 7.6%
[9]; [12]
  HbA1c at baseline: 7.5%

## insulin aspart [IAsp]
[9]; [11]
  HbA1c at baseline: 7.6%
[9]; [12]
  HbA1c at baseline: 7.6%
